The record followed here is patent US11071721B2, “Bicyclic amide compounds and methods of use thereof” (Genentech, Inc., priority 2016, dated 2021).

Sequence of human RIP1 kinase domain (2-375) (Q13546 2-375): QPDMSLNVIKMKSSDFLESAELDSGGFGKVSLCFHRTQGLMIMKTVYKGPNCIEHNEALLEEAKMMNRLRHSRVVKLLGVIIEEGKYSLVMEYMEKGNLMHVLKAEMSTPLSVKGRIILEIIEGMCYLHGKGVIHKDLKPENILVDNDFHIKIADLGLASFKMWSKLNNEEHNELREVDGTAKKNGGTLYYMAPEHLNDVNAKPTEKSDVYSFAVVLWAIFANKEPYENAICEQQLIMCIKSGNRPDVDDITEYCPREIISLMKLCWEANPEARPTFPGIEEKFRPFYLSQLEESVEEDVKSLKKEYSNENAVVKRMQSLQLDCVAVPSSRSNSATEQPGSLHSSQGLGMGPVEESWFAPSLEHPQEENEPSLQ

The assay addresses human RIP1 kinase domain (2-375) (Homo sapiens (Human), UniProt Q13546). Kind of assay: RIP1 kinase inhibition assay (Transcreener ADP biochemical enzyme assay). The conditions noted are these: Ki app (Morrison tight-binding fit); 50 nM enzyme, 50 uM ATP, 2 hours incubation, fluorescence polarization. The method in brief:
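Baculovirus-expressed human RIP1 kinase domain (2-375), 50 nM, incubated 2 h with compound in pH 7.5 Hepes with 30 mM MgCl2, 1 mM DTT, 50 uM ATP, 0.5% DMSO. ADP detected by Transcreener fluorescence polarization (antibody/AlexaFluor 633 tracer displacement). Ki^app from Morrison tight-binding fit of fractional activity.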
(In fluorescence polarisation assays a small probe gives low polarisation when free and higher when bound to something large.)
The compound `O=C(c1nc2n(n1)[C@@H](c1ccccc1)CC2)N1CC(F)(F)C1` (stereo in doubt) [Example 32, (3,3-difluoroazetidin-1-yl)-[rac-(5R)-5-phenyl-6,7-dihydro-5H-pyrrolo[1,2-b][1,2,4]triazol-2-yl]methanone] displayed a Ki of 66 nM.

In the case of `O=C(c1nc2n(n1)[C@@H](c1ccccc1)C[C@H]2F)N1CCC(F)(F)C1` (stereo in doubt) [Example 54, (3,3-difluoropyrrolidin-1-yl)-[rac-(5R,7R)-7-fluoro-5-phenyl-6,7-dihydro-5H-pyrrolo [1,2-b][1,2,4]triazol-2-yl]methanone], the Ki worked out at 11 nM.

`O=C(c1nc2n(n1)[C@@H](c1ccccc1)C[C@H]2F)N1CCn2nccc2C1` (stereo in doubt) [Example 66, 6,7-dihydro-4H-pyrazolo[1,5-a]pyrazin-5-yl-[rac-(5R,7R)-7-fluoro-5-phenyl-6,7-dihydro-5H-pyrrolo[1,2-b][1,2,4]triazol-2-yl]methanone] had a Ki of 15 nM.

Take `O=C(c1nc2n(n1)[C@@H](c1ccccc1)C[C@H]2F)N1CCc2cccnc2C1` (stereo in doubt) [Example 67, 6,8-dihydro-5H-1,7-naphthyridin-7-yl-[rac-(5R,7R)-7-fluoro-5-phenyl-6,7-dihydro-5H-pyrollo[1,2-b][1,2,4]triazol-2-yl]methanone]: the Ki was determined as 5 nM.

Consider `O=C(c1nc2n(n1)[C@H](c1ccccc1)C[C@@H]2F)N1CCn2nccc2C1` (stereo in doubt) [Example 69, 6,7-dihydro-4H-pyrazolo[1,5-a]pyrazin-5-yl-[rac-(5S,7S)-7-fluoro-5-phenyl-6,7-dihydro-5H-pyrrolo[1,2-b][1,2,4]triazol-2-yl]methanone], for which the Ki amounted to 52 nM.

In the case of `O=C(c1nc2n(n1)[C@H](c1ccccc1)C[C@@H]2F)N1CCc2cccnc2C1` (stereo in doubt) [Example 74, 6,8-dihydro-5H-1,7-naphthyridin-7-yl-[rac-(5S, 7S)-7-fluoro-5-phenyl-6,7-dihydro-5H-pyrrolo [1,2-b][1,2,4]triazol-2-yl]methanone], the Ki worked out at 24 nM.

As to `O=C(c1nc2n(n1)[C@@H](c1ccccc1)C[C@H]2F)N1CCc2ccccc2C1` (stereo in doubt) [Example 76], the Ki was 31 nM.

For `O=C(c1nc2n(n1)[C@H](c1ccccc1)C[C@@H]2F)N1CCC(F)(F)C1` (stereo in doubt) [Example 98, (3,3-difluoropyrrolidin-1-yl)-[rac-(5S,7S)-7-fluoro-5-phenyl-6,7-dihydro-5H-pyrrolo [1,2-b][1,2,4]triazol-2-yl]methanone], the Ki amounted to 36 nM.

Compound `O=C(c1nc2n(n1)[C@H](c1ccccc1)C[C@@H]2F)N1CCc2ccccc2C1` (stereo in doubt) [Example 99, 3,4-dihydro-1H-isoquinolin-2-yl-[rac-(5S,7S)-7-fluoro-5-phenyl-6,7-dihydro-5H-pyrrolo[1,2-b][1,2,4]triazol-2-yl]methanone] showed a Ki of 13 nM.

For the compound `O=C(c1nc2n(n1)[C@H](c1ccccc1)C[C@@H]2F)N1CC(F)(F)C1` [Example 3, (3,3-difluoroazetidin-1-yl)-[(5S,7S)-7-fluoro-5-phenyl-6,7-dihydro-5H-pyrrolo[1,2-b][1,2,4]triazol-2-yl]methanone], the Ki was 9 nM.

Consider `O=C(c1cc2n(n1)CC[C@@H]2c1ccccc1)N1CC(F)(F)C1` [Example 9, (3,3-difluoroazetidin-1-yl)-[(4R)-4-phenyl-5,6-dihydro-4H-pyrrolo[1,2-b]pyrazol-2-yl]methanone], for which the Ki was found to be 2660 nM.

As to `CCC(F)(F)n1ncc2cnc(C(=O)N3CC(F)(F)C3)cc21` [Example 103], the Ki turned out to be 6700 nM.
